Experiments:
mice = assay: Acute toxicity by intravenous administration; assay type: in vivo; settings: intravenously administered to tail vein in ten mice at the dose of 30 mg/kg
Procedure: On the other hand, it was confirmed that the acute toxicity of all extent of the compounds of the present invention was more than 30 mg/kg by intravenous administration. Therefore, glycerol derivatives of the present invention may be considered to be sufficiently safe and suitable for medical use. For example, the mortality (dead/used) in glycerol derivatives of the present invention, i.e. compounds prepared in Example l(g), l(v), 5(d), 12(b), 12(n), 12(o), 12(s) and 12(x) was 0/10, 0/10, 0/10, 1/10/ 0/10, 0/10, 0/10 and 0/10, respectively, when each glycerol compound was intravenously administered to tail vein in ten mice at the dose of 30 mg/kg.

[1] = molecular target: phospholipase C obtained from lung of guinea-pig; assay: Inhibitory effect on phospholipase C (method of Rittenhouse-Simmons, 3H-labelled phosphatidyl-inositol substrate); assay type: biochemical; settings: enzyme from lung of guinea-pig; substrate 3H-myoinositol labelled phosphatidyl-inositol from rat liver microsome
Procedure: (3) Inhibitory effect on phospholipase C
The activity of the enzyme was examined by the method of Rittenhouse-Simmons by using ^3H-myoinsitol labelled phosphatidyl-inositol biosynthesized in microsome of liver in rat as substrate and phospholipase C obtained from lung of guinea-pig as enzyme [cf. J. Clin. Invest., 63, 580 (1979)].
(§1) The evaluation is conducted using the concentration of compounds of the present invention required to produce a 50% inhibition of each effect, i.e. IC50.

[2] = molecular target: phospholipase A2 obtained from lung of guinea-pig; assay: Inhibitory effect on phospholipase A2 (modified method of Shakir, 14C-arachidonyl phosphatidylcholine substrate); assay type: biochemical; settings: enzyme from lung of guinea-pig; substrate L-B-[1-14C]-arachidonyl-a'-stearoyl-phosphatidylcholine
Procedure: (2) Inhibitory effect on phospholipase A
The activity of the enzyme was examined by modification of the method of Shakir by using L-B-[1-^14C]- arachidonyl-a'-stearoyl-phosphatidylcholine as substrate and phospholipase A2 obtained from lung of guinea-pig as enzyme [cf. Anal. Biochem., 114, 67 (1981)].
as §1

[3] = molecular target: PAF-induced platelet aggregation (Cavia porcellus, UniProt P21556); assay: Inhibitory effect on PAF-induced platelet aggregation (method of Born, platelet rich plasma); assay type: cell-based; settings: platelet rich plasma from male guinea-pig; PAF (10 nM)-induced aggregation
Chain of PAF-induced platelet aggregation (P21556 whole entry): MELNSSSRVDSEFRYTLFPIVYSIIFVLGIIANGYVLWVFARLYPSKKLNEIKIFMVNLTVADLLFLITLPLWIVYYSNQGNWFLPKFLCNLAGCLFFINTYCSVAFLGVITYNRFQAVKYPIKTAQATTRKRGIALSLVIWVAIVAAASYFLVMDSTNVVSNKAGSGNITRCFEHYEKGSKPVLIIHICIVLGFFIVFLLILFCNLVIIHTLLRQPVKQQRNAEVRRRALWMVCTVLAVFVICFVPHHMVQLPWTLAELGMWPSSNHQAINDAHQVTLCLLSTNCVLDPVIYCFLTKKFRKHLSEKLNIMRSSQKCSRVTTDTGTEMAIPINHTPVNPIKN
Procedure: (1) Inhibitory effect on PAF-induced platelet aggregation
A mixture of 9 parts of blood obtained from male guinea-pig, and one part of 3.8X trisodium citrate was centrifuged for 10 minutes at 120 x g at room temperature to obtain platelet rich plasma (PRP). Using obtained PRP, PAF (lOnM)-induced aggregation was determined by the method of Born [cf. J. Physiol., 162, 67 (1962)].
as §1

Molecule | mortality (dead/used) (mice) | IC50 [1] [µM] | IC50 [2] [µM] | IC50 [3] [µM]
CCCCCCCCCCCCCCCCOCC(COCCCC[N+](C)(C)C)OCc1ccccc1 (racemic) [1 (g), (2RS)-l-0-hexadecyl-2-0-benzyl-3-0-[4-(N,N,N-trimethylammonio)butyl]glycerol chloride] | 0/10 | 180 | 130 | –
CCCCCCCCCCCCCCCCOCC(COC(=O)CCC[N+](C)(C)C)OCc1ccccc1 (racemic) [1 (v), (2RS)-1-0-hexadecyl-2-0-benzyl-3-0-[4-(N,N,N-trimethylammonio)-butyryl]glycerol halide] | 0/10 | – | – | –
CCCCCCCCCCCCCCCCOCC(O)COCCCC[N+](C)(C)C (racemic) [5 (d), (2RS)-1-0-hexadecyl-3-0-[4-(N,N,N-trimethylammonio)butyl]glycerol halide] | 0/10 | 660 | 240 | –
CCCCCCCCCCCCCCCCSCC(COCCCC[N+](C)(C)C)OCc1ccccc1 (racemic) [12 (b), (2RS)-1-hexadecylthio-2-0-benzyl-3-0-[4-(N,N,N-trimethylammanio)-butyl]-2,3-propanediol halide] | 1/10 | – | – | –
CCCCCCCCCCCCCCCCOCC(COCCCC[N+](C)(C)C)OC(=O)c1ccccc1 (racemic) [12 (n), (2RS)-l-0-hexadecyl-2-0-benzoyl-3-0-[4-(N,N,N-trimethylammonio)-butyl]glycerol halide] | 0/10 | – | – | –
CCCCCCCCCCCCCCCCOCC(COCCCC[N+](C)(C)C)OC(=O)NC (racemic) [12 (o), (2RS)-1-0-hexadecyl-2-0-(N-methylcarbaraoyl)-3-0-[4-(N,N,N-trimethylammonio)butyl]glycerol halide] | 0/10 | – | – | –
CCCCCCCCCCCCCCCCOCC(COCCCC[N+](C)(C)C)SCC (racemic) [12 (s), (2RS)-l-0-hexadecyl-2-ethylthio-3-0-[4-(N,N,N-trimethylammonio)-butyl]-1,3-propanediol halide] | 0/10 | – | – | –
(2RS)-1-0-hexadecyl-2-[ethoxy(thiocarbonyl)thio]-3-0-[4-(N,N,N-trimethylammonio)butyl]-1,3-propanediol halide [12 (x)] | 0/10 | 200 | 240 | 3.8

Source: patent EP0094586A2, “Glycerol derivatives, process for preparing same and pharmaceutical composition containing same” (ONO PHARMACEUTICAL CO., LTD., priority 1982, dated 1983)
